From PubChem BioAssay AID220 (DTP/NCI, 2004)
Where “and” joins values, the source holds several entries; their conditions need not be identical. Equal values may be shown once. Inconclusive results are not listed.

Test system: CD8F1 mice, subcutaneous mammary adenocarcinoma, T/C%
Test: NCI In Vivo Anticancer Drug Screen. Data for tumor model Mammary Adenocarcinoma CD8F1 (subcutaneous) in CD8F1
Settings: higher = larger tumour
How it was run: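 Compound-treated versus vehicle-treated mice with transplantable tumors; survival or tumor size compared as T/C.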

[1] = endpoint: median tumor weight (est.), dose: 12.5 mg/kg/injection, schedule: Q07DX005 (ip), vehicle: saline with Tween-80
[2] = endpoint: median tumor weight (est.), dose: 25.0 mg/kg/injection, schedule: Q07DX005 (ip), vehicle: saline with Tween-80
[3] = endpoint: median tumor weight (est.), dose: 50.0 mg/kg/injection, schedule: Q07DX005 (ip), vehicle: saline with Tween-80
[4] = endpoint: median tumor weight (est.), dose: 100.0 mg/kg/injection, schedule: Q07DX005 (ip), vehicle: saline with Tween-80
[5] = endpoint: median tumor weight (est.), dose: 200.0 mg/kg/injection, schedule: Q07DX005 (ip), vehicle: saline with Tween-80
[6] = endpoint: median tumor weight (est.), dose: 400.0 mg/kg/injection, schedule: Q07DX005 (ip), vehicle: saline with Tween-80

For `CO[C@H](C(=O)[C@@H](O)[C@@H](C)O)[C@@H]1Cc2cc3cc(OC4CC(OC5CC(O)C(O)C(C)O5)C(O)C(C)O4)c(C)c(O)c3c(O)c2C(=O)[C@H]1OC1CC(OC2CC(OC3CC(C)(O)C(O)C(C)O3)C(O)C(C)O2)C(O)C(C)O1` (some centres undefined), the T/C (endpoint: median tumor weight (est.), dose: 0.25 mg/kg/injection, schedule: Q07DX006 (ip), vehicle: saline) was 76 % of control, the T/C (endpoint: median tumor weight (est.), dose: 0.5 mg/kg/injection, schedule: Q07DX006 (ip), vehicle: saline) was 104 % of control and the T/C (endpoint: median tumor weight (est.), dose: 1.0 mg/kg/injection, schedule: Q07DX006 (ip), vehicle: saline) was 78 % of control.
In the case of `CC1OC(=O)C(C(C)C)NC(=O)C(C(C)C)OC(=O)C(C(C)C)NC(=O)C(C)OC(=O)C(C(C)C)NC(=O)C(C(C)C)OC(=O)C(C(C)C)NC(=O)C(C)OC(=O)C(C(C)C)NC(=O)C(C(C)C)OC(=O)C(C(C)C)NC1=O` (centres undefined), the T/C (endpoint: mean tumor weight, dose: 1.0 mg/kg/injection, schedule: Q02DX007 (ip), vehicle: saline) is reported as 119 % of control, the T/C (endpoint: mean tumor weight, dose: 1.0 mg/kg/injection, schedule: Q07DX006 (ip), vehicle: saline) is reported as 49 % of control and the T/C (endpoint: mean tumor weight, dose: 2.0 mg/kg/injection, schedule: Q02DX007 (ip), vehicle: saline) is reported as 87 % of control. For the same compound, the T/C (endpoint: mean tumor weight, dose: 2.0 mg/kg/injection, schedule: Q07DX006 (ip), vehicle: saline) was 110 % of control, the T/C (endpoint: mean tumor weight, dose: 4.0 mg/kg/injection, schedule: Q02DX007 (ip), vehicle: saline) was 97 % of control and the T/C (endpoint: mean tumor weight, dose: 4.0 mg/kg/injection, schedule: Q07DX006 (ip), vehicle: saline) was 165 % of control. For the same compound, the T/C (endpoint: mean tumor weight, dose: 8.0 mg/kg/injection, schedule: Q02DX007 (ip), vehicle: saline) was 103 % of control, the T/C (endpoint: mean tumor weight, dose: 8.0 mg/kg/injection, schedule: Q07DX006 (ip), vehicle: saline) was 84 % of control and the T/C (endpoint: mean tumor weight, dose: 16.0 mg/kg/injection, schedule: Q02DX007 (ip), vehicle: saline) was 116 % of control. For the same compound, the T/C (endpoint: mean tumor weight, dose: 16.0 mg/kg/injection, schedule: Q07DX006 (ip), vehicle: saline) was 70 % of control, the T/C (endpoint: median tumor weight (est.), dose: 1.25 mg/kg/injection, schedule: Q07DX005 (ip), vehicle: saline with Tween-80) was 69 % of control and the T/C (endpoint: median tumor weight (est.), dose: 2.5 mg/kg/injection, schedule: Q07DX005 (ip), vehicle: saline with Tween-80) was 34 % of control. For the same compound, the T/C (endpoint: median tumor weight (est.), dose: 5.0 mg/kg/injection, schedule: Q07DX005 (ip), vehicle: saline with Tween-80) was 86 % of control, the T/C (endpoint: median tumor weight (est.), dose: 10.0 mg/kg/injection, schedule: Q07DX005 (ip), vehicle: saline with Tween-80) was 114 % of control and the T/C (endpoint: median tumor weight (est.), dose: 20.0 mg/kg/injection, schedule: Q07DX005 (ip), vehicle: saline with Tween-80) was 74 % of control.
For `CC(=O)Nc1ccc(S(=O)(=O)CO)cc1`, the T/C [1] was 222 % of control and 77 % of control, the T/C [2] was 174 % of control and 409 % of control and the T/C [3] was 189 % of control and 268 % of control. The T/C [4] was 211 % of control and 271 % of control, the T/C [5] was 186 % of control and 403 % of control and the T/C [6] was 165 % of control and 281 % of control.
With `Cc1ccc(NC(=O)Oc2ccc(Br)cc2Br)c([N+](=O)[O-])c1` the T/C [1] was 121 % of control, the T/C [2] was 93 % of control and the T/C [3] was 115 % of control. For the same compound, the T/C [4] was 77 % of control, the T/C [5] was 124 % of control and the T/C [6] was 98 % of control. The T/C (endpoint: median tumor weight change, dose: 250.0 mg/kg/injection, schedule: Q01DX001 (ip), vehicle: saline with Tween-80) was 52 % of control, the T/C (endpoint: median tumor weight change, dose: 500.0 mg/kg/injection, schedule: Q01DX001 (ip), vehicle: saline with Tween-80) was 88 % of control and the T/C (endpoint: median tumor weight change, dose: 1000.0 mg/kg/injection, schedule: Q01DX001 (ip), vehicle: saline with Tween-80) was 50 % of control. The T/C (endpoint: median tumor weight change, dose: 1800.0 mg/kg/injection, schedule: Q01DX001 (ip), vehicle: saline with Tween-80) was 74 % of control, the T/C (endpoint: median tumor weight change, dose: 2000.0 mg/kg/injection, schedule: Q01DX001 (ip), vehicle: saline with Tween-80) was 59 % of control and the T/C (endpoint: median tumor weight change, dose: 3600.0 mg/kg/injection, schedule: Q01DX001 (ip), vehicle: saline with Tween-80) was 44 % of control.
For `NC(=O)/C=C/c1c[nH]c2nccnc12`, the T/C (endpoint: median tumor weight change, dose: 31.25 mg/kg/injection, schedule: Q01DX001 (ip), vehicle: water) was 124 % of control, the T/C (endpoint: median tumor weight change, dose: 62.5 mg/kg/injection, schedule: Q01DX001 (ip), vehicle: water) was 73 % of control and the T/C (endpoint: median tumor weight change, dose: 125.0 mg/kg/injection, schedule: Q01DX001 (ip), vehicle: water) was 58 % of control.
`Cc1cc(N(CC(C)Br)CC(C)Br)ccc1N=Nc1ccccc1C(=O)O` (centres undefined) was tested, and the T/C (endpoint: median tumor weight (est.), dose: 1.56 mg/kg/injection, schedule: Q07DX005 (ip), vehicle: saline with Tween-80) was 79 % of control, the T/C (endpoint: median tumor weight (est.), dose: 3.12 mg/kg/injection, schedule: Q07DX005 (ip), vehicle: saline with Tween-80) was 94 % of control and the T/C (endpoint: median tumor weight (est.), dose: 6.25 mg/kg/injection, schedule: Q07DX005 (ip), vehicle: saline with Tween-80) was 68 % of control. The T/C [1] was 47 % of control and the T/C [2] was 23 % of control.
